Here are results for 38 molecules from patent US10774064B2 (Cadent Therapeutics, Inc., priority 2016, dated 2020).

In the assay the target is T1, small-conductance Ca2+-activated K+ channels (SK channels, subtype 2) (Homo sapiens, UniProt Q9H2S1).
T1 construct: expressed in transfected cells; host or cells: HEK293
Kind of assay: whole-cell patch-clamp of ionic current through SK2 channels in HEK293 cells (SC100). It is filed as cell-based. Particulars: whole-cell patch-clamp, HEK293 cells expressing SK2 channels; concentration that increases the basal current by 100%. In short, it runs like this:
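Whole-cell patch-clamp recording of current in HEK293 cells expressing SK2 channels. SC100 is the compound concentration that increases basal current by 100%.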

With `CC1(O)CC(Oc2cc(-n3ccc(F)n3)nc(NC3CCC(F)(F)CC3)n2)C1` (centres unmarked) [NSSy6464, 3-((2-((4,4-difluorocyclohexyl)amino)-6-(3-fluoro-1H-pyrazol-1-yl)pyrimidin-4-yl)oxy)-1-methylcyclobutan-1-ol], the “SC100 (μM)” value is “+ (+ means >1 uM)”.

As for `Fc1ccn(-c2cc(N3CC4(COC4)C3)nc(NC3CCC(F)(F)CC3)n2)n1` [NSSy6467], the “SC100 (μM)” value is given as “+ (+ means >1 uM)”.

`Fc1ccn(-c2cc(N3CCOCC3)nc(NC3CCC(F)(F)CC3)n2)n1` [NSSy6468]: the “SC100 (μM)” value is “+ (+ means >1 uM)”.

`Cc1ccn(-c2cc(C(O)Cc3ccc(C#N)cn3)cc(NC3CCC(F)(F)CC3)n2)n1` (centres unmarked) [NSSy6469, 6-(2-(2-((4,4-difluorocyclohexyl)amino)-6-(3-methyl-1H-pyrazol-1-yl)pyridin-4-yl)-2-hydroxyethyl)nicotinonitrile]: the “SC100 (μM)” value is listed as “+++ (+++ means <200 nM)”.

As to `Cc1ccn(-c2cc(N3CCOCC3)cc(C(=O)c3ccc(F)cc3)n2)n1` [NSSy6470, (4-fluorophenyl) (6-(3-methyl-1H-pyrazol-1-yl)-4-morpholinopyridin-2-yl) methanone], the “SC100 (μM)” value is recorded as “+ (+ means >1 uM)”.

`Cc1cc(C)n(-c2cc(N3CC4(COC4)C3)nc(NC3CCC(F)CC3)n2)n1` (centres unmarked) [NSSy6471, 4-(3,5-dimethyl-1H-pyrazol-1-yl)-N-(4-fluorocyclohexyl)-6-(2-oxa-6-azaspiro[3.3]heptan-6-yl)pyrimidin-2-amine]: the “SC100 (μM)” value was “+ (+ means >1 uM)”.

As for `Cc1ccn(-c2cc(N3CCOCC3)cc(C(O)c3ccc(F)cc3)n2)n1` (centres unmarked) [NSSy6472, (4-fluorophenyl) (6-(3-methyl-1H-pyrazol-1-yl)-4-morpholinopyridin-2-yl) methanol], the “SC100 (μM)” value is “+ (+ means >1 uM)”.

Regarding `Cc1nn(-c2cc(C(O)c3ncco3)cc(NC3CCC(F)(F)CC3)n2)c(C)c1F` (centres unmarked) [NSSy6473], the “SC100 (μM)” value is on record as “++ (++ means 200 nM-1000 nM)”.

`Cc1ccn(-c2nc(NC3CCC(O)CC3)cc(N3CCOCC3)n2)n1` (centres unmarked) [NSSy6486]: the “SC100 (μM)” value is “+ (+ means >1 uM)”.

Consider `Cc1ccn(-c2cc(S(=O)(=O)N3CCC(F)(F)CC3)cc(N3CCOCC3)n2)n1` [NSSy6489, 4-(4-((4,4-difluoropiperidin-1-yl)sulfonyl)-6-(3-methyl-1H-pyrazol-1-yl)pyridin-2-yl)morpholine], for which the “SC100 (μM)” value is recorded as “+ (+ means >1 uM)”.

Take `Cc1ccn(-c2cc(N3CCOCC3)nc(NC3CCC(F)(F)CC3)n2)n1` [NSSy6499]: the “SC100 (μM)” value is “+ (+ means >1 uM)”.

Consider `Cc1ccn(-c2nc(NC34CC5CC(CC(O)(C5)C3)C4)cc(N3CCOCC3)n2)n1` [NSSy6511], for which the “SC100 (μM)” value is reported as “+ (+ means >1 uM)”.

`Cc1ccn(-c2cc(N3CCOCC3)cc([C@@H](O)c3ccc(F)cc3)n2)n1` [NSSy6513, (S)-(4-fluorophenyl)(6-(3-methyl-1H-pyrazol-1-yl)-4-morpholinopyridin-2-yl)methanol]: the “SC100 (μM)” value is reported as “+ (+ means >1 uM)”.

Turning to `Cc1ccn(-c2cc(N3CCOCC3)cc([C@H](O)c3ccc(F)cc3)n2)n1` [NSSy6514, (R)-(4-fluorophenyl)(6-(3-methyl-1H-pyrazol-1-yl)-4-morpholinopyridin-2-yl)methanol], the “SC100 (μM)” value is listed as “+ (+ means >1 uM)”.

Turning to `COc1cc(-n2nc(C)cc2C)nc(NC2CCC(F)(F)CC2)n1` [NSSy6519, N-(4,4-difluorocyclohexyl)-4-(3,5-dimethyl-1H-pyrazol-1-yl)-6-methoxy pyrimidin-2-amine], the “SC100 (μM)” value was “++ (++ means 200 nM-1000 nM)”.

In the case of `Cc1ccn(-c2cc(N3CC4(COC4)C3)nc(NC3CCC(F)(F)CC3)n2)n1` [NSSy6522], the “SC100 (μM)” value is recorded as “++ (++ means 200 nM-1000 nM)”.

In the case of `Cc1ccnn1-c1cc(N2CC3(COC3)C2)nc(NC2CCC(F)(F)CC2)n1` [NSSy6523], the “SC100 (μM)” value is recorded as “+ (+ means >1 uM)”.

Regarding `Cc1ccnn1-c1cc(N2CCOCC2)nc(NC2CCC(F)(F)CC2)n1` [NSSy6525], the “SC100 (μM)” value was “+ (+ means >1 uM)”.

With `Cc1ccn(-c2nc(NC3CCC(C#N)CC3)cc(N3CCOCC3)n2)n1` (centres unmarked) [NSSy6526], the “SC100 (μM)” value is reported as “+ (+ means >1 uM)”.

For `COC1CCC(Nc2cc(N3CCOCC3)nc(-n3ccc(C)n3)n2)CC1` (centres unmarked) [NSSy6529, N-(4-methoxycyclohexyl)-2-(3-methyl-1H-pyrazol-1-yl)-6-morpholinopyrimidin-4-amine], the “SC100 (μM)” value was “+ (+ means >1 uM)”.

As to `Cc1ccn(-c2nc(N[C@H]3CC[C@H](C(N)=O)CC3)cc(N3CCOCC3)n2)n1` [NSSy6539], the “SC100 (μM)” value was “+ (+ means >1 uM)”.

For the molecule `Cc1ccn(-c2nc(NC3CCC(N(C)C)CC3)cc(N3CCOCC3)n2)n1` (centres unmarked) [NSSy6540], the “SC100 (μM)” value is listed as “+ (+ means >1 uM)”.

In the case of `Cc1ccn(-c2nc(NC3CCC(C(N)=O)CC3)cc(N3CCOCC3)n2)n1` (centres unmarked) [NSSy6541], the “SC100 (μM)” value is reported as “+ (+ means >1 uM)”.

Regarding `Cc1ccn(-c2nc(NC3CCC(N)CC3)cc(N3CCOCC3)n2)n1` (centres unmarked) [NSSy6550], the “SC100 (μM)” value is listed as “+ (+ means >1 uM)”.

On to `Cc1csc(-c2cc(N3CC4(COC4)C3)nc(NC3CCC(F)(F)CC3)n2)n1` [NSSy6558, N-(4,4-difluorocyclohexyl)-4-(4-methylthiazol-2-yl)-6-(2-oxa-6-azaspiro [3.3]heptan-6-yl)pyrimidin-2-amine], for which the “SC100 (μM)” value is given as “++ (++ means 200 nM-1000 nM)”.

Turning to `Cc1csc(-c2cc(C(O)c3ncco3)cc(NC3CCC(F)(F)CC3)n2)n1` (centres unmarked) [NSSy6563], the “SC100 (μM)” value is given as “++ (++ means 200 nM-1000 nM)”.

`Cc1ccn(-c2cc(N3CCOCC3)cc(NC3CCC(F)(F)CC3)n2)n1` [NSSy6573]: the “SC100 (μM)” value is given as “++ (++ means 200 nM-1000 nM)”.

Turning to `COc1cc(-n2ccc(C)n2)nc(NC2CCC(F)(F)CC2)n1` [NSSy6574], the “SC100 (μM)” value is “+ (+ means >1 uM)”.

For `Cc1ccn(-c2cc(C(O)c3nnc(C)o3)cc(NC3CCC(F)(F)CC3)n2)n1` (centres unmarked) [NSSy6576], the “SC100 (μM)” value is listed as “++ (++ means 200 nM-1000 nM)”.

`Cc1ccn(-c2cc(N3CC4(CCC4)C3)nc(NC3CCC(F)(F)CC3)n2)n1` [NSSy6580]: the “SC100 (μM)” value was “+ (+ means >1 uM)”.

For the molecule `Cc1ccn(-c2cc(N3CCC4(CCOCC4)C3)nc(NC3CCC(F)(F)CC3)n2)n1` [NSSy6581], the “SC100 (μM)” value was “+ (+ means >1 uM)”.

Regarding `Cc1ccn(-c2cc(N3CC4CCCC4C3)nc(NC3CCC(F)(F)CC3)n2)n1` (centres unmarked) [NSSy6584], the “SC100 (μM)” value is “+ (+ means >1 uM)”.

Consider `Cc1ccn(-c2cc(N3CC4COCC4C3)nc(NC3CCC(F)(F)CC3)n2)n1` (centres unmarked) [NSSy6585], for which the “SC100 (μM)” value was “+ (+ means >1 uM)”.

As to `Cc1cc(-c2nc(C)cs2)nc(NC2CCC(F)(F)CC2)n1` [NSSy6590], the “SC100 (μM)” value is on record as “++ (++ means 200 nM-1000 nM)”.

In the case of `Cc1cc(-n2ccc(C(F)(F)F)n2)nc(NC2CCC(F)(F)CC2)n1` [NSSy6591], the “SC100 (μM)” value is reported as “+ (+ means >1 uM)”.

Take `Cc1cc(-n2nc(C)cc2C)nc(NC2CCC(F)(F)CC2)n1` [NSSy6593]: the “SC100 (μM)” value is “++ (++ means 200 nM-1000 nM)”.

Take `CC(=O)N1CCN(c2cc(-c3nc(C)cs3)nc(NC3CCC(F)(F)CC3)n2)CC1` [NSSy6598, 1-(4-(2-((4,4-difluorocyclohexyl)amino)-6-(4-methylthiazol-2-yl)pyrimidin-4-yl)piperazin-1-yl)ethan-1-one]: the “SC100 (μM)” value is on record as “++ (++ means 200 nM-1000 nM)”.

For `CC(=O)N1CCN(c2cc(-n3ccc(C(F)(F)F)n3)nc(NC3CCC(F)(F)CC3)n2)CC1` [NSSy6607], the “SC100 (μM)” value was “++ (++ means 200 nM-1000 nM)”.
